Reference: the NIST ThermoML archive (doi:10.1016/j.jct.2016.04.003)

Test: refractive index (Na D-line) (dimensionless); xn = mol fraction of the nth substance listed
Conditions: 99 kPa, Liquid, Standard Abbe refractometry

CCC[n+]1ccccc1.F[B-](F)(F)F [1-propylpyridinium tetrafluoroborate] + O
refractive index
Conditions	293.15 K	303.15 K	313.15 K	323.15 K
x1 = 0.0185	1.34795	1.34613	1.34407	1.34187
x1 = 0.0287	1.3549	1.35282	1.35055	1.34817
x1 = 0.0466	1.36529	1.36297	1.36049	1.35792
x1 = 0.0766	1.37888	1.37637	1.37374	1.37105
x1 = 0.0964	1.38592	1.38337	1.38071	1.37801
x1 = 0.2011	1.40941	1.40683	1.40419	1.40152
x1 = 0.2858	1.41984	1.41727	1.41465	1.41202
x1 = 0.3993	1.42862	1.42604	1.42343	1.42083
x1 = 0.4979	1.4337	1.4311	1.42848	1.42588
x1 = 0.5772	1.43677	1.43415	1.43152	1.42891
x1 = 0.6015	1.43757	1.43495	1.43233	1.42971
x1 = 0.6695	1.43957	1.43694	1.4343	1.43169
x1 = 0.7309	1.44111	1.43847	1.43583	1.43321
x1 = 0.7771	1.44212	1.43948	1.43685	1.43422
x1 = 0.8395	1.44335	1.4407	1.43806	1.43543
x1 = 0.9054	1.44449	1.44183	1.43918	1.43656
x1 = 0.9633	1.44537	1.44271	1.44006	1.43742
x1 = 1	1.44588	1.44322	1.44057	1.43793
